Results: US5223526A, “Pyrazole carboxanilide fungicides and use” (Monsanto Company, priority 1992, dated 1993)

Key:
succinate dehydrogenase = target: T1, succinate dehydrogenase (Botrytis cinerea, UniProt A0A384J5E4+A0A384J8V8+A0A384JHJ5); assay: Enzyme inhibition: succinate dehydrogenase activity in Botrytis cinerea mitochondria (DCPIP reduction); assay type: biochemical; conditions: concentration required to inhibit the rate of DCPIP reduction by 50%; Botrytis cinerea isolate Nick mitochondria; read-out: I50 (μM conc.)
T1 construct: succinate-DCPIP reductase assay with KCN
How it was run: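 Crude mitochondria from Botrytis cinerea isolate Nick mycelia, prepared by bead-beating and differential centrifugation, started reactions. SDH activity followed as DCPIP reduction at 600 nm in 50 mM K-phosphate pH 7.2 with 1 mM KCN, 45 μM DCPIP, 17 mM succinate, 1% acetone. I50 from semilog inhibition plots, corrected for succinate-free rates.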

Botrytis cinerea [1] = assay: Eggplant grey mold; assay type: in vivo; design: scale not given here; conditions: inoculated 24 h later, rated after 3-4 days; for Disease Control Rating at 20 ppm: eggplant sprayed with 20 ppm; for Disease Control Rating at 100 ppm: eggplant sprayed with 100 ppm; for Disease Control Rating at 500 ppm: eggplant sprayed with 500 ppm
How it was run: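 Protective test: compound formulations (2:3 acetone:water, 0.5% Tween 20; 500, 100 or 20 ppm) sprayed on 14-18-day-old plants, with spore inoculum (4×10^6 spore/mL) applied a day later. Disease control rated on Botrytis lesions after 3-4 days at 23 °C and 100% humidity.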

Botrytis cinerea [2] = assay: Vine grey mold (grape berries); assay type: in vivo; conditions: average of six berries, 7-10 days; for pest or weed control at 50 ppm: grape berries treated with 50 ppm, read-out: % DISEASE CONTROL 50 ppm; for pest or weed control at 200 ppm: grape berries treated with 200 ppm, read-out: % DISEASE CONTROL 200 ppm
How it was run: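 Preventive berry test: compound at 50 or 200 ppm (acetone/water, 0.05% Tween 20) applied one day before inoculation with 10^6 spores/mL Botrytis conidia. After 7-10 days at 20 °C under 12 h light, infected surface area rated; disease control expressed as percent reduction from control mean; repeated-test values averaged.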

Rhizoctonia solani = assay: Rice sheath blight; assay type: in vivo; design: scale not given here; conditions: inoculated two days later, rated after 7 days, average of five plants; for Disease Control Rating at 0.02 mg/mL: foliage and soil sprayed with 0.02 mg/mL; for Disease Control Rating at 0.1 mg/mL: foliage and soil sprayed with 0.1 mg/mL; for Disease Control Rating at 0.5 mg/mL: foliage and soil sprayed with 0.5 mg/mL
How it was run: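 Rice plants 11–15 days old had foliage and soil sprayed with 0.5, 0.1 or 0.02 mg/mL Compound A in water/acetone/Tween 20, then kept in flooded trays. Two days later, rice-grain Rhizoctonia solani inoculum went to plant bases; disease control scored versus untreated after 7 days at 25 °C, high humidity, averaging five plants.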

T1 sequence (A0A384J5E4 1-300): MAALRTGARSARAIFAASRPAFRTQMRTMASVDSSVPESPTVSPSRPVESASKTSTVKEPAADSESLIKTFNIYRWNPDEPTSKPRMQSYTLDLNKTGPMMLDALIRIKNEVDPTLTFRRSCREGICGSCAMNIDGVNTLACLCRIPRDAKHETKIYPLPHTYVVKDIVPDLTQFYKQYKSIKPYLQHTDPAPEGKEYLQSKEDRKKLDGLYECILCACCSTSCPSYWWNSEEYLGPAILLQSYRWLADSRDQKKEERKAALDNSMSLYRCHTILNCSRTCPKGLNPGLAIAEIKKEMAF
T1 sequence (A0A384J8V8 1-189): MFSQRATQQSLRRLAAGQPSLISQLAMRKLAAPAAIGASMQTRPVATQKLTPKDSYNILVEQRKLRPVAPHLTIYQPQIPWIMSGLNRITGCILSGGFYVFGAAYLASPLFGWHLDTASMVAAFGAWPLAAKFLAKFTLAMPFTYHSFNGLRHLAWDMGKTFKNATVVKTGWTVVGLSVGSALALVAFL
T1 sequence (A0A384JHJ5 1-192): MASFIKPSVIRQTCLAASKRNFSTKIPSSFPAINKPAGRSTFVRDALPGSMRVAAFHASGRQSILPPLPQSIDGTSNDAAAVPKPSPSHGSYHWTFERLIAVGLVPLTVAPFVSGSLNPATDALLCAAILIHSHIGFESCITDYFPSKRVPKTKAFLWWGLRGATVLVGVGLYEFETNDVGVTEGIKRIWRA
T1 sequence (A0A384K456 1-647 partner): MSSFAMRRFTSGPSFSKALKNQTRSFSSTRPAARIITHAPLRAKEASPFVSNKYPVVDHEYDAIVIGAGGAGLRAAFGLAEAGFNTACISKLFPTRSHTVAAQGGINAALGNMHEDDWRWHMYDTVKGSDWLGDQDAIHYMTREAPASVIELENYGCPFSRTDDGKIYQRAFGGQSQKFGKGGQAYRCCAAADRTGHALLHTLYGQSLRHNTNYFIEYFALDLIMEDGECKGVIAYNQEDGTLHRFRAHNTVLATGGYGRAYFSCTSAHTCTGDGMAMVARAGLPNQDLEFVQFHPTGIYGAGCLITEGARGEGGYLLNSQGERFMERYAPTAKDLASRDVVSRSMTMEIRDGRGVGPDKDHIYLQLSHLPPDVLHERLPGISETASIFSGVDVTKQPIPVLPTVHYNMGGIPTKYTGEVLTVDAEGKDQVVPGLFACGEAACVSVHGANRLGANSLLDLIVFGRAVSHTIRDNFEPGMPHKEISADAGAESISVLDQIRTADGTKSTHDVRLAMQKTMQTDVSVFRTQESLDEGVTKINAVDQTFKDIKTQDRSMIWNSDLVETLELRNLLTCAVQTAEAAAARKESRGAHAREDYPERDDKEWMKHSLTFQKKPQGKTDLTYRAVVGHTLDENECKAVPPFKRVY

SMILES | IC50 (succinate dehydrogenase) [µM] | Disease Control Rating at 20 ppm (Botrytis cinerea [1]) | Disease Control Rating at 100 ppm (Botrytis cinerea [1]) | Disease Control Rating at 500 ppm (Botrytis cinerea [1]) | pest or weed control at 50 ppm (Botrytis cinerea [2]) [%] | pest or weed control at 200 ppm (Botrytis cinerea [2]) [%] | Disease Control Rating at 0.02 mg/mL (Rhizoctonia solani) | Disease Control Rating at 0.1 mg/mL (Rhizoctonia solani) | Disease Control Rating at 0.5 mg/mL (Rhizoctonia solani)
Cc1nn(C)cc1C(=O)Nc1ccccc1C1CCCCCCC1 [Example 41, 1H-pyrazole-4-carboxamide, N-(2-cyclooctylphenyl)-1,3-dimethyl-] | 0.021 | 0 | 0 | 3 | 34 | 37 | 1 | 3 | 3
Cn1cc(C(=O)Nc2ccccc2OCC2CCC2)c(C(F)F)n1 [Example 42, 1H-pyrazole-4-carboxamide, N-[2-(cyclobutylmethoxy)phenyl]-3-(difluoromethyl)-1-methyl-] | 0.2 |  |  | 0 | 0 | 25 | 2 | 3 | 3
Cn1cc(C(=O)Nc2ccccc2OCC2CCC2)c(C(F)(F)F)n1 [Example 43, 1H-pyrazole-4-carboxamide, N-[2-(cyclobutylmethoxy)phenyl]-1-methyl-3-(trifluoromethyl)-] | 0.38 |  |  | 0 | 3 | 0 | 2 | 3 | 3
Cn1cc(C(=O)Nc2ccccc2SC2CCCCC2)c(C(F)F)n1 [Example 44, 1H-pyrazole-4-carboxamide, N-[2-(cyclohexylthio)phenyl]-3-(difluoromethyl)-1-methyl-] | 0.052 |  |  | 1 | 0 | 37 |  |  | 0
Cn1cc(C(=O)Nc2ccccc2SC2CCCCC2)c(C(F)(F)F)n1 [Example 45, 1H-pyrazole-4-carboxamide, N-[2-(cyclohexylthio)phenyl]-1-methyl-3-(trifluoromethyl)-] | 0.092 |  |  | 0 | 7 | 12 |  |  | 0
Cn1cc(C(=O)Nc2ccccc2OCC2CCCC2)c(C(F)F)n1 [Example 46, 1H-pyrazole-4-carboxamide, N-[2-(cyclopentylmethoxy)phenyl]-3-(difluoromethyl)-1-methyl-] | 0.096 |  |  | 0 | 1 | 0 | 2 | 3 | 3
Cn1cc(C(=O)Nc2ccccc2OCC2CCCC2)c(C(F)(F)F)n1 [Example 47, 1H-pyrazole-4-carboxamide, N-[2-(cyclopentylmethoxy)phenyl]-1-methyl-3-(trifluoromethyl)-] | 0.16 |  |  | 0 | 3 | 0 | 1 | 3 | 3
Cn1cc(C(=O)Nc2ccccc2OCCCC2CCCC2)c(C(F)F)n1 [Example 48, 1H-pyrazole-4-carboxamide, N-[2-(3-cyclopentylpropoxy)phenyl]-3-(difluoromethyl)-1-methyl-] | 0.02 |  |  | 0 | 10 | 0 |  |  | 2
Cn1cc(C(=O)Nc2ccccc2OCCCC2CCCC2)c(C(F)(F)F)n1 [Example 49, 1H-pyrazole-4-carboxamide, N-[2-(3-cyclopentylpropoxy)phenyl]-1-methyl-3-(trifluoromethyl)-] | 0.047 |  |  | 0 | 4 | 0 |  |  | 0
Cn1cc(C(=O)Nc2ccccc2C2CCCCC2)c(Cl)n1 [Example 50, 1H-pyrazole-4-carboxamide, 3-chloro-N-(2-cyclohexylphenyl)-1-methyl-] | 0.098 |  |  | 0 | 8 | 22 | 0 | 0 | 2
Cn1cc(C(=O)Nc2ccccc2C2CCCCCC2)c(Cl)n1 [Example 51, 1H-pyrazole-4-carboxamide, 3-chloro-N-(2-cycloheptylphenyl)-1-methyl-] | 0.023 |  |  | 0 | 16 | 27 | 0 | 1 | 2
CC(c1ccccc1NC(=O)c1cn(C)nc1C(F)(F)F)C1CCCC1 (stereo not shown) [Example 53, 1H-pyrazole-4-carboxamide, N-[2-(1-cyclopentylethyl)phenyl]-1-methyl-3-(trifluoromethyl)-] | 0.021 |  |  | 0 | 40 | 70 | 2 | 3 | 3
Cn1cc(C(=O)Nc2ccccc2OCCC2CCCC2)c(C(F)F)n1 [Example 54, 1H-pyrazole-4-carboxamide, N-[2-(2-cyclopentylethoxy)phenyl]-3-(difluoromethyl)-1-methyl-] | 0.011 |  |  | 0 | 2 | 2 |  |  | 2
Cn1cc(C(=O)Nc2ccccc2OCCC2CCCC2)c(C(F)(F)F)n1 [Example 55, 1H-pyrazole-4-carboxamide, N-[2-(2-cyclopentylethoxy)phenyl]-1-methyl-3-(trifluoromethyl)-] | 0.027 |  |  | 0 | 11 | 0 |  |  | 0
Cn1cc(C(=O)Nc2ccccc2C2CCCCC2)c(I)n1 [Example 56, 1H-pyrazole-4-carboxamide, N-[2-(cyclohexyl)phenyl]-3-iodo-1-methyl-] | 0.013 |  |  | 0 | 46 | 70 |  |  | 0
Cn1cc(C(=O)Nc2ccccc2C2CCCCCC2)c(I)n1 [Example 57, 1H-pyrazole-4-carboxamide, N-[2-(cycloheptyl)phenyl]-3-iodo-1-methyl-] | 0.0047 |  |  | 0 | 53 | 72 |  |  | 0
Cn1cc(C(=O)Nc2ccccc2C2CCCCC2)c(OC(F)F)n1 [Example 59] | 1 |  |  | 0 | 0 | 0 |  |  | 0
Cn1cc(C(=O)Nc2ccccc2C2CCCCCC2)c(OC(F)F)n1 [Example 60] | 0.35 |  |  | 0 | 0 | 0 |  |  | 0
O=C(Nc1ccccc1C1CCCCC1)c1cn(C(F)F)nc1C(F)F [Example 61, 1H-pyrazole-4-carboxamide, N-(2-cyclohexylphenyl)-1,3-bis(difluoromethyl)-] | 0.19 |  |  | 1 | 0 | 0 |  |  | 0
Cn1cc(C(=O)Nc2ccccc2C2CCCCC2)c([N+](=O)[O-])n1 [Example 62, 1H-pyrazole-4-carboxamide, N-(2-cyclohexylphenyl]-1-methyl-3-nitro-] | 0.29 | 0 | 0 | 1 | 0 | 0 |  |  | 0
Cn1cc(C(=O)Nc2ccccc2C2CCCCCC2)c(Br)n1 [Example 63, 1H-pyrazole-4-carboxamide, 3-bromo-N-(2-cycloheptylphenyl)-1-methyl-] | 0.0063 |  |  | 1 | 34 | 65 | 2 | 3 | 3
